One data set has as its system Cervical. The experiment in a line: Imaging and tissue distribution, tumor model. Format: in vivo, Spontaneous Mouse. The following applies: Adenocarcinoma.
In a further data set the test system is animal tumor models. The experiment in a line: Imaging and biodistribution across animal tumor models (general statements). An excerpt:
See, for example, U.S. patent application Ser. Nos. 10/906,687, 11/177,740, 11/316,620 and 11/382,645. Due to deficiencies in metabolic phospholipase enzymes in the membranes of malignant tumor cells, the prevailing hypothesis for this specificity is that phospholipid ether analogs become trapped exclusively in tumor cell membranes because of their inability to become metabolized and eliminated by the cancerous cell. Thus, the differential clearance rates of phospholipid ethers from normal cells versus neoplastic tumor cells are responsible for this specificity.
The reason for the retention of PLE and analogs in cancer cells remains unknown. Without being held to any particular theory, however, the prevailing hypothesis, is that radioiodinated PLE and APC analogs become trapped in tumor cell membranes because of their inability to be metabolized and eliminated. On the other hand, such lipid molecules are metabolized and cleared by normal tissues, including the liver.
These PLE analogs are specifically designed to incorporate aromatic radioiodine in order to render the molecule stable towards in vivo deiodination.

In a further data set the test system is Min Mouse Intestinal. The data set is described as follows: Imaging and tissue distribution, tumor model; therapeutic responses at imaging doses. Type of data set: in vivo. The text has this:
During the course of mouse tumor uptake and retention studies with “imaging” doses (15-20 μCi/20 g mouse) of ^125I-labeled NM404, several apparent therapeutic responses have been observed (unpublished results). […] Some of these animals also lost all hair above larger mammary tumors at around 8 days after injection. Moreover, these mice also get intestinal tumors and usually suffer from intestinal bleeding resulting in severe anemia, which renders their feet white. […] Another compelling example of tumor regression is illustrated in FIG. 13. Two litter mates each received SCC1 and SCC6 xenografts in their left and right flanks, respectively. One mouse received a single injection of ^125I-NM404 (20 μCi). […] These coincidental findings were reconfirmed in two separate age-matched groups each involving more than 6 mice.

For a further data set, the system named is Adrenal RL-251. The data set is described as follows: Imaging and tissue distribution, tumor model. Format: in vivo, SCID Mouse.
Another data set relates to Prostate MatLyLu. The data set is described as follows: Gamma camera scintigraphy screen in Dunning R3327 (MAT LyLu) prostate cancer model. Type of data set: in vivo, Copenhagen rats. Here is the method: The avidity of PLE and APC analogs to localize in tumors was evaluated in several animal models. The PC-3 model represents a human tumor cell line that was used to determine the target (tumor) to non-target ratio of NM404 and NM412 in head to head comparison in order to select a candidate for an initial human pharmacokinetic trial in prostate cancer patients. The MatLyLu (Dunning R3327 rat) model, a rat prostate tumor line, was used specifically to screen 9 specific analogs prior to entering them into control for dosimetry and tumor-bearing animals for determining tumor/background ratios. Finally, the Walker-256 carcinosarcoma model was used for quantitative tissue distribution purposes.
In order to expedite the screening process and minimize the number of tumor bearing animals utilized in multiple time point tissue distribution studies, new radioiodinated homologs were imaged by gamma camera scintigraphy in the rat Dunning […] (MAT LyLu strain) prostate cancer model. Thus, male Copenhagen rats received a subcutaneous injection of MAT LyLu cells (1×10^6 cells) in the thigh 10-14 days prior to injection of the radioiodinated PLE analogs (30-40 μCi) in 2% Tween-20 solution. Gamma camera images were obtained at multiple time points including 24 and 48 hours post injection. […] Tissue distribution of radioactivity in rats bearing Walker-256 carcinosarcoma was assessed at various time intervals following intravenous administration of the radioiodinated chain length homologs. The first group of compounds that was tested included three alkylphosphocholines: a shorter chain analog with seven carbons NM396 and two analogs with a longer chain length, 13 (NM397, C15 alkyl chain length) and 1 (NM404, C18 alkyl chain length).
In order to decrease liver uptake and prolong the plasma phase, the inventors examined 9 structural analogs of NM324 to identify agents that would display improved tumor-to-background tissue ratios with decreased liver uptake. The new PLE analogs were synthesized and radiolabeled with ^125I for initial image analysis in Copenhagen rats bearing Dunning R3327 prostate tumors. […] NM404 was therefore selected to undergo further imaging and biodistribution analysis in a variety of animal-tumor models.

For the next data set, the system named is Liver CT-26. The experiment in a line: Imaging and tissue distribution, tumor model. Type of data set: in vivo, Mouse xenograft. The conditions noted are these: Colorectal adenocarcinoma.
The test system of the next data set is Ovarian HTB-77. The data set is described as follows: Imaging and tissue distribution, tumor model. Format: in vivo, Nude Mouse. The conditions noted are these: Adenocarcinoma.
The next data set is described as follows: Blood plasma kinetics. Details: species or system rats. The following applies: rat, in vivo.
The test system of a further data set is Glioma L9. The data set is described as follows: Imaging and tissue distribution, tumor model. Type of data set: in vivo, Rat.
The subject of a further data set is Hepatocellular Carcinoma. The experiment in a line: Imaging and tissue distribution, tumor model. Type of data set: in vivo, Spontaneous TGF-α mouse. The following applies: Adenocarcinoma.

This is an account of results in patent publication US8022235B2, “Compositions of phospholipid ether boronic acids and esters and methods for their synthesis and use” (Cellectar, Inc., priority 2007, dated 2011).

Excerpt for Glioma L9: (§1) Imaging and tissue distribution studies performed in mouse models aimed at determining the uptake characteristics in a wide variety of tumor models are summarized in Table 1, below.
Excerpt for Hepatocellular Carcinoma: as §1

Regarding `C[N+](C)(C)CCOP(=O)([O-])OCCCCCCCCCCCCCCCCCCc1ccc(I)cc1` [NM404, 18-(p-iodophenyl)-octadecyl phosphocholine], the Uptake entry with Cervical, in the data set with Min Mouse Intestinal (Adenocarcinoma), with Adrenal RL-251 (Adenocarcinoma), with Prostate MatLyLu (Adenocarcinoma), in the data set with Liver CT-26 and with Ovarian HTB-77 was “Yes” each time. The Uptake result with Glioma L9 and in the data set on Hepatocellular Carcinoma was “Yes” each time. Further, the “tumor concentrations over time” value in the data set with animal tumor models (following administration) was “almost stable for many weeks”. In addition, the “elimination from normal tissue” value in the data set with animal tumor models (in vivo) is recorded as “eliminated from normal tissue within a few days”. In addition, the tumor retention result with animal tumor models (over 27 animal tumor models, every model and tumor type studied) is recorded as “tumor-selective retention”; in the data set with Adrenal RL-251 (human adrenal tumor xenograft, FIG. 7), “Prolonged tumor retention”. Besides, the tumor selectivity result with animal tumor models (radioiodinated, 37 of 37 models investigated) is “remarkable tumor selectivity”. In the data set on animal tumor models (up to), the “uptake into the tumor tissue” value is 10-25 % of the injected dose. Also, in the data set on Min Mouse Intestinal (after 21 days, both intestinal models), the “survival vs untreated litter mates” value is recorded as “easily outlived their untreated litter mates”. Moreover, the “feet color (anemia from intestinal bleeding)” value in the data set on Min Mouse Intestinal (around 5 days after a single injection, ^125I-labeled, 15-20 μCi/20 g mouse) was “reverted to a pink color”. In the data set with Min Mouse Intestinal (of the expected 20 or so, ^125I-labeled, 15-20 μCi/20 g mouse), the “intestinal tumors remaining at dissection” value is “only a very few, if any”. For the same molecule, the “tumor visualization by gamma camera scintigraphy” value in the data set with Prostate MatLyLu (24 and 48 hours after injection) is reported as “readily visualized”. Besides, in the data set on Prostate MatLyLu (125I-labeled, initial image screen, compared with NM324), the liver activity entry is listed as “much lower liver activity”. Further, the “duration of tumor retention” value in the data set on Prostate MatLyLu (initial screen, FIG. 7) is on record as “over 20 days”. Besides, the “distribution phase half life” value in the data set “Blood plasma kinetics” was found to be 4.86 h. Besides, the “elimination half life time in plasma” value in “Blood plasma kinetics” is “roughly 209 hours”.
